From US20150175655A1 (priority 2012, published 2015) come the findings set out here.

pKi: −log10 of the molar value.

One assay addresses T1, NS3 genotype 3a protease (UniProt Q81258).
T1 construct: Purified NS3 protease domain (amino acids 1-181) of the genotype 1b and 3a virus were generated as above; fused on or other part: N-terminal hexahistidine tag and rTEV protease cleavage site (vector p28-N6H-Tev-NS3(181)3)
T1 sequence (Q81258 1033-1663): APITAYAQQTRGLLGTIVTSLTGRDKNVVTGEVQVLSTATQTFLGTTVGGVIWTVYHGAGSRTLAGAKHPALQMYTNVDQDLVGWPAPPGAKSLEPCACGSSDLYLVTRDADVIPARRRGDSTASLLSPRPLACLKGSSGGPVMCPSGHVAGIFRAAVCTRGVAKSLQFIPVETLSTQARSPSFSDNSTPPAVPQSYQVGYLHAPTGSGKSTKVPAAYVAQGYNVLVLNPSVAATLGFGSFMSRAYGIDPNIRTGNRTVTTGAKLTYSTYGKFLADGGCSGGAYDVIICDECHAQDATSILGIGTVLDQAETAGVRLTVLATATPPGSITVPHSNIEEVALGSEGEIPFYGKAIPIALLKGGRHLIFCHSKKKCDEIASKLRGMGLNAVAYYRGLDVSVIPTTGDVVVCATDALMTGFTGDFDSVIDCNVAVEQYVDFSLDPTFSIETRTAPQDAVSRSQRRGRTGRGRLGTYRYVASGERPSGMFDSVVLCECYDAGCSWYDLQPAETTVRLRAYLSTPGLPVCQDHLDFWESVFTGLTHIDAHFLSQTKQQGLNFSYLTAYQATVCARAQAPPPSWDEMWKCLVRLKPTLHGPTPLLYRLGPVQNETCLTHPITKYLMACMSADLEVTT
As to the kind of experiment: Ki determination, NS3 protease genotype 3a (fluorogenic depsipeptide substrate). In kind it is biochemical, hepatitis C virus. To be noted: 200 pM enzyme, 20 μM NS4A peptide, 2 μM substrate, read-out: Ki 3A. The text has this: The coding sequences for the genotype 3 HCV protease domain was amplified by RT-PCR using a Titan One Tube RT-PCR Kit (Roche, Indianapolis, Ind.) and RNA extracted from HCV-positive human serum (BBI Diagnostics, MA) using a QIAmp UltraSens Virus Kit (Qiagen, Valencia, Calif.). 5′ PCR primers were designed to encode N-terminal hexahistidine tags and to insert in-frame rTEV protease cleavage sites into the NS3 protease coding sequences. The resulting DNA fragments were cloned into pET28 yielding the expression vectors p28-N6H-Tev-NS3(181)1a and p28-N6H-Tev-NS3(181)3, respectively.
BL21AI bacteria (Invitrogen, Carlsbad, Calif.) were transformed with genotype 1b or 3 NS3 expression vectors and used to inoculate a 20 L fermentation vessel (Sartorius BBI System Inc., Bethlehem, Pa.), containing 18 L of fresh 2YT medium supplemented with 50 μg/mL kanamycin. When cell densities reached an OD600 of 1, the temperature of the cultures was reduced from 37° C. to 28° C. and induction was immediately initiated by the addition of 30 μM ZnSO4, 14 mM L-arabinose and 1 mM Isopropyl β-D-thiogalactoside (IPTG) final concentrations. Cells were harvested by centrifugation four hours post-induction and were stored as frozen pellets at −80° C. prior to NS3 protein purification.
Bacterial pellets collected from the expression of genotype 3 HCV NS3 protease were homogenized in Lysis Buffer (25 mM tris, pH 7.5 buffer containing 150 mM NaCl and 1 mM phenylmethanesulfonyl fluoride (PMSF)) and passed through a microfluidizer at 18,000 pounds/in^2. Homogenized cell lysates were centrifuged at 30,000×g for 30 minutes at 4° C. The resulting P1 pellets were washed with Wash Buffer I (25 mM tris, pH 7.5 containing 1% CHAPS) followed by centrifugation at 10,000×g for 30 minutes at 4° C. […] The resulting P3 pellets were resuspended in Solubilization Buffer (20 ml of 25 mM tris, pH 7.5 containing 150 mM NaCl and 8 M urea) and incubated at 4° C. for one hour. Solubilized proteins were passed through a 0.45 micron filter. Protein concentrations were measured and the solutions were adjusted to 40 mM DTT, incubated for 30 minutes at 4° C. and then quickly diluted into Refolding Buffer (25 mM tris, pH 8.5, 0.8 M Guanidine-HCl, 0.4 M L-Arginine, 10 mM ZnSO4) while stirring. Protein solutions were incubated at 4° C. overnight to allow refolding. Refolded proteases were centrifuged at 30,000×g for 10 minutes to remove residual precipitates. Final protein concentrations were then measured and the NS3 proteases were aliquoted, snap frozen in liquid nitrogen and stored at −80° C.
Purified NS3 protease domain (amino acids 1-181) of the genotype 1b and 3a virus were generated as above. The internally quenched fluorogenic depsipeptide substrate Ac-DED(Edans)-EEAbuψ[COO]ASK(Dabcyl)-NH2 and a synthetic peptide containing the hydrophobic core residues of the NS4A protein cofactor ([…]; NS4A peptide) were obtained from Anaspec, Inc. (San Jose, Calif.). Other chemicals and biochemicals were of reagent grade or better and were purchased from standard suppliers.
Reactions were run at room temperature in buffer consisting of 50 mM HEPES, 40% glycerol, 0.05% Triton X-100, 10 mM DTT, and 10% DMSO. The final assay solutions contained 50 pM NS3 genotype 1b protease or 200 pM genotype 3a protease, 20 μM NS4A peptide, and 4 μM substrate (genotype 1 b) or 2 μM substrate (genotype 3a). Inhibitor concentrations varied from 100 nM to 5 pM in 3-fold dilutions, and no-inhibitor controls were included.
Compound dilutions were made in DMSO at 20× final concentration. Reaction mixtures were prepared in 96-well assay plates. A solution of enzyme and NS4A peptide in assay buffer (25 μL volume with both reagents at 4× final concentration) was mixed with 45 μL assay buffer and 5 μL of either inhibitor or DMSO, and pre-incubated at room temperature for 1 hour. The reaction was started by addition of 25 μL substrate solution at 4× final concentration. […]
As a reminder, the pKi is the Ki on a negative log10 scale, so that one unit is a factor of ten. Turning to `CC[C@@H]1[C@@H]2CN(C(=O)[C@H](C(C)(C)C)NC(=O)O[C@@H]3C[C@H]3CCCCCc3nc4ccc(OC)cc4nc3O2)[C@@H]1C(=O)N[C@]1(C(=O)NS(=O)(=O)C2CC2)C[C@H]1C(F)F` [Example 2, (1aR,5S,8S,9S,10R,22aR)-5-tert-butyl-N-[(1R,2R)-1-[(cyclopropylsulfonyl)carbamoyl]-2-(difluoromethyl)cyclopropyl]-9-ethyl-14-methoxy-3,6-dioxo-1,1a,3,4,5,6,9,10,18,19,20,21,22,22a-tetradecahydro-8H-7,10-methanocyclopropa[18,19][1,10,3,6]dioxadiazacyclononadecino[11,12-b]quinoxaline-8-carboxamide], the negative-log Ki (pKi) is 10.40.

In the case of `CC[C@@H]1[C@@H]2CN(C(=O)[C@H](C(C)(C)C)NC(=O)O[C@@H]3C[C@H]3CCCCCc3nc4ccc(OC)cc4nc3O2)[C@@H]1C(=O)N[C@]1(C(=O)NS(=O)(=O)C2(Cl)CC2)C[C@H]1C(F)F` [Example 75, (1aR,5S,8S,9S,10R,22aR)-5-tert-butyl-N-[(1R,2R)-1-{[(1-chlorocyclopropyl)sulfonyl]carbamoyl}-2-(difluoromethyl)cyclopropyl]-9-ethyl-14-methoxy-3,6-dioxo-1,1a,3,4,5,6,9,10,18,19,20,21,22,22a-tetradecahydro-8H-7,10-methanocyclopropa[18,19][1,10,3,6]dioxadiazacyclononadecino[11,12-b]quinoxaline-8-carboxamide], the pKi is 9.92.

Consider `CC[C@@H]1[C@@H]2CN(C(=O)[C@H](C(C)(C)C)NC(=O)O[C@@H]3C[C@H]3CCCCC(F)(F)c3nc4ccc(C#N)cc4nc3O2)[C@@H]1C(=O)N[C@]1(C(=O)NS(=O)(=O)C2(C)CC2)C[C@H]1C(F)F` [Example 87, (1aR,5S,8S,9S,10R,22aR)-5-tert-butyl-14-cyano-N-[(1R,2R)-2-(difluoromethyl)-1-{[(1-methylcyclopropyl)sulfonyl]carbamoyl}cyclopropyl]-9-ethyl-18,18-difluoro-3,6-dioxo-1,1a,3,4,5,6,9,10,18,19,20,21,22,22a-tetradecahydro-8H-7,10-methanocyclopropa[18,19][1,10,3,6]dioxadiazacyclononadecino[11,12-b]quinoxaline-8-carboxamide], for which the pKi is 10.30.

For the compound `C[C@@H]1[C@@H]2CN(C(=O)[C@H](C(C)(C)C)NC(=O)O[C@@H]3C[C@@H]4C[C@@H]4[C@H]3CCCCC(F)(F)c3nc4ccccc4nc3O2)[C@@H]1C(=O)N[C@]1(C(=O)NS(=O)(=O)C2(C)CC2)C[C@H]1C(F)F` [Example 82, (1aS,2aR,6S,9S,10S,11R,23aR,23bS)-6-tert-butyl-N-[(1R,2R)-2-(difluoromethyl)-1-{[(1-methylcyclopropyl)sulfonyl]carbamoyl}cyclopropyl]-19,19-difluoro-10-methyl-4,7-dioxo-1a,2,2a,4,5,6,7,10,11,19,20,21,22,23,23a,23b-hexadecahydro-1H,9H-8,11-methanocyclopropa[4′,5′]cyclopenta[1′,2′:18,19][1,10,3,6]dioxadiazacyclononade cino[11,12-b]quinoxaline-9-carboxamide], the pKi is 10.40.

`CC[C@@H]1[C@@H]2CN(C(=O)[C@H](C(C)(C)C)NC(=O)O[C@]3(C)CCC[C@H]3CCCCCc3nc4ccc(OC)cc4nc3O2)[C@@H]1C(=O)N[C@]1(C(=O)NS(=O)(=O)C2(C)CC2)C[C@H]1CCF` [Example 52, (3aR,7S,10S,11S,12R,24aR)-7-tert-butyl-11-ethyl-N-[(1R,2S)-2-(2-fluoroethyl)-1-{[(1-methylcyclopropyl)sulfonyl]carbamoyl}cyclopropyl]-16-methoxy-3a-methyl-5,8-dioxo-1,2,3,3a,5,6,7,8,11,12,20,21,22,23,24,24a-hexadecahydro-10H-9,12-methanocyclopenta[18,19][1,10,3,6]dioxadiazacyclononadecino[11,12-b]quinoxaline-10-carboxamide]: the pKi is 8.89.

For the compound `CC[C@@H]1[C@@H]2CN(C(=O)[C@H](C(C)(C)C)NC(=O)O[C@]3(C)CCC[C@H]3CCCCCc3nc4ccc(OC)cc4nc3O2)[C@@H]1C(=O)N[C@]1(C(=O)NS(=O)(=O)C2CC2)C[C@H]1CC` [Example 51], the pKi is 9.08.

`CC[C@@H]1[C@@H]2CN(C(=O)[C@H](C(C)(C)C)NC(=O)O[C@@H]3[C@H]4CC[C@H](C4)[C@H]3CCCCCc3nc4ccc(OC)cc4nc3O2)[C@@H]1C(=O)N[C@]1(C(=O)NS(=O)(=O)C2(C)CC2)C[C@H]1C(F)F` [Example 37, (1R,4S,4aR,8S,11S,12S,13R,25aR)-8-tert-butyl-N-[(1R,2R)-2-(difluoromethyl)-1-{[(1-methylcyclopropyl)sulfonyl]carbamoyl}cyclopropyl]-12-ethyl-17-methoxy-6,9-dioxo-2,3,4,4a,6,7,8,9,12,13,21,22,23,24,25,25a-hexadecahydro-1H,11H-1,4:10,13-dimethanoquinoxalino[2,3-k][1,10,3,6]benzodioxadiazacyclononadecine-11-carboxamide]: the pKi is 9.72.

The same assay, now with this note: read-out: Ki 3A, 200 pM enzyme, 20 μM NS4A peptide, 2 μM substrate.
Take `COc1ccc2nc3c(nc2c1)O[C@H]1CN(C(=O)[C@H](C(C)(C)C)NC(=O)O[C@@H]2C[C@H]2CCCCC3)[C@H](C(=O)N[C@]2(C(=O)NS(=O)(=O)C3(C)CC3)C[C@H]2CCF)[C@@H]1C` [Example 23, (1aR,5S,8S,9S,10R,22aR)-5-tert-butyl-N-[(1R,2S)-2-(2-fluoroethyl)-1-{[(1-methylcyclopropyl)sulfonyl]carbamoyl}cyclopropyl]-14-methoxy-9-methyl-3,6-dioxo-1,1a,3,4,5,6,9,10,18,19,20,21,22,22a-tetradecahydro-8H-7,10-methanocyclopropa[18,19][1,10,3,6]dioxadiazacyclononadecino[11,12-b]quinoxaline-8-carboxamide]: the pKi is 8.96.
